Reference: patent publication US20220193072A1, “METHODS OF TREATING BREAST CANCER WITH TETRAHYDRONAPHTHALENE DERIVATIVES AS ESTROGEN RECEPTOR DEGRADER” (Arvinas Operations, Inc., priority 2020, published 2022)
Residue numbers refer to the chain shown, from its start. Like-named read-outs stand apart in the source and are kept apart here.

Legend:
ERα = molecular target: T1, ERα (Homo sapiens, UniProt P03372); assay: In vivo ERα degradation in MCF7 xenograft tumors (immunoblot); parameters: species or system NOD/SCID mice; settings: MCF7/estradiol model, fulvestrant 200 mg/kg
T1 construct: robustly degrades ER in ER-positive breast cancer cell lines; endogenous in cells; host or cells: MCF7, T47D (cell culture); MCF7 and tamoxifen-resistant MCF7 xenograft tumours in mice
T1 sequence (P03372 1-595): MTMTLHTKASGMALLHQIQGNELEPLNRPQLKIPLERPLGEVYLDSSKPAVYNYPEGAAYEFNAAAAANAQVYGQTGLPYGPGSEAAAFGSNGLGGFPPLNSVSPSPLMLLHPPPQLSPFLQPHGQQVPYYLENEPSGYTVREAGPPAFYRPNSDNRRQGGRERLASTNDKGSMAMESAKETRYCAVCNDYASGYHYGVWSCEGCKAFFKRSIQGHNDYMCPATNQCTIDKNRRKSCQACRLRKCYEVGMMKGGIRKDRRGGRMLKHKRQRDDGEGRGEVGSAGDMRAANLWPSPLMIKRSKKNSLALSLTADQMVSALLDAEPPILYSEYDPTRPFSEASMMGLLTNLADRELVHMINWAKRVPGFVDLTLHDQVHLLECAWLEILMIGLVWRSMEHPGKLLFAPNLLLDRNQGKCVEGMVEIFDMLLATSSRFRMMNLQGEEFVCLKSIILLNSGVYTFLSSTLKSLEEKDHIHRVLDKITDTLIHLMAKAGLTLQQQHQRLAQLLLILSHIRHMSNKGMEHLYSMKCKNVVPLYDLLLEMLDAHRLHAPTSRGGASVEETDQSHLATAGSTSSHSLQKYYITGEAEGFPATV
Protocol: Approximately 18 hours after the final administration, mice were sacrificed, and MCF7 xenografts were harvested and lysed to determine ER levels by immunoblotting. […] Diet was supplemented with peanut butter to help maintain body weights.
Species: NOD/SCID female mice (Charles River, 6-7 weeks old upon arrival).
Animal handling: Axial mammary fat pad implantation of 5×10^6 MCF7 cells/200 per mouse (17β-estradiol 0.36 mg 90-day pellet implanted day before).
Dosing: Oral (gavage), once a day (QD) for 3 days (QD×3). Vehicle: 2% Tween80/PEG400 (‘PEG/Tween’).
Sampling: Terminal sacrifice was ˜18 hrs after last dose; tumors were harvested, divided and flash frozen. ERα levels were determined by immunoblotting.
Cell Lysis: flash frozen tumors were removed from −80° C. storage and placed on dry ice. RIPA lysis buffer and Halt protease inhibitors were used at 400 μl per tumor sample. A steel ball (5 mm) was placed in each sample for tissue disruption. Samples were lysed with TissueLyzer at 24 Hz for 4 minutes. The homogenization was stopped half way through the process and the block flipped over for the duration of the process. Steel beads were pulled out of the tubes and the lysates were spun down at 21,000×g for 15 minutes at 4° C. Lysates were then measured for total protein concentration by BCA (per manufacturer's protocol).
Detection of proteins by immunoblot: lysates were mixed with sample buffer and reducing agent (per manufacturer's protocol). Samples were denatured at 95° C. for 5 minutes in thermal cycler. Samples were cooled and spun down (5000×g; 1 minute) prior to loading on gel. Gels were loaded with 10 μg total protein per lane. Samples were loaded on 4-15% Criterion Tris/Glycine gels and run for 25 minutes at 250 constant volts in 1×Tris/Glycine/SDS buffer. Protein was transferred from gels to nitrocellulose with Bio-Rad Turbo on default setting. All blots were rinsed with distilled water and blocked for 1 hour at RT in 5% BSA in TBS-T (TBS with 0.1% Tween) on rocker. The blots were cut so that beta-actin and ERα can be detected from the same lane/sample.
Blots were incubated with primary antibody in 5% BSA in TBST (0.1%) overnight at 4° C. on rocker:
Blot was washed with TBST (0.1%) three times for 5 minutes on rocker at RT. Secondary antibody was added, and blots incubated at RT on rocker for 1 hour (1:18,000 anti-rabbit-HRP in TBS-T). Blots were washed 3 times in TBST (0.1%) for 5 minutes at RT on the rocker. Signal was developed with Pierce WestFemto maximum sensitivity substrate for 5 minutes and blots imaged on BioRad ChemiDoc.
Sampling: Tumors were measured twice weekly. Terminal sacrifice was ˜18 hr after last dose; tumors were harvested, divided, and flash frozen. ERα levels were determined by immunoblotting.
At study termination, the tumors were removed from the mice, and ERα levels were determined by immunoblotting the tumor homogenates.
Sampling: tumors were measured twice weekly. Terminal sacrifice was ˜18 hr after last dose; tumors were harvested, divided, and flash frozen. ERα levels were determined by immunoblotting.

MCF7 xenograft = assay: MCF7 orthotopic xenograft, combination with CDK4/6 inhibitor; assay type: in vivo, NOD/SCID mice
ESR1 (Y537S) PDX = ESR1 (Y537S) PDX model tumor growth inhibition; assay type: in vivo; settings: ESR1 (Y537S) PDX, fulvestrant 200 mg/kg SC twice/week, 2 weeks
ERα (ESR1 Y537S) = molecular target: T2, ERα (ESR1 Y537S) (Homo sapiens, UniProt P03372, Y537S); assay: Tumor ERα levels in ESR1 (Y537S) PDX model; assay type: in vivo; settings: ESR1 (Y537S) PDX, fulvestrant 200 mg/kg SC twice/week, 2 weeks
T2 construct: a hormone-independent patient-derived xenograft model; from tissue; host or cells: ESR1 (Y537S) patient-derived xenograft tumour grown in mice
T2 sequence (P03372 1-595 Y537S): T1 sequence (P03372 1-595) with Y537S

[1] = cited from earlier work; for progression free survival (PFS): minimum follow-up 18 months
ER = molecular target: T3, ER (Homo sapiens, UniProt P03372); settings: after 6 months of fulvestrant treatment; cited from earlier work
T3 sequence (P03372 1-595): T1 sequence (P03372 1-595)

For `C[C@]12CC[C@@H]3c4ccc(O)cc4C[C@@H](CCCCCCCCC[S+]([O-])CCCC(F)(F)C(F)(F)F)[C@H]3[C@@H]1CC[C@@H]2O` (stereo partly shown) [Fulvestrant], the “% ERα ↓” value (ERα) was “None”, the “Day 28 Tumor volume (mean ± SD)” value (MCF7 xenograft; fulvestrant 200 mg/kg SC) was 489 ± 154 mm^3 and the “TGI (% vehicle)” value (MCF7 xenograft; fulvestrant 200 mg/kg SC) was 46 % vehicle. The “tumor growth inhibition (TGI)” value (MCF7 xenograft; single agent 200 mg/kg subcutaneous, twice/week for 2 weeks) was 46%, the “tumor growth inhibition (TGI)” value (ESR1 (Y537S) PDX) was 62% and the “reduction of tumor ERα levels” value (ERα (ESR1 Y537S)) was 63%. The “progression free survival (PFS)” value ([1]; fulvestrant 250 mg) was 5.4 months, the response rate ([1]; fulvestrant 250 mg, CI 10.5-19.4%) was 14.6% and the “overall survival (OS)” value ([1]; fulvestrant 250 mg) was 22.8 months. For the same molecule, the “progression free survival (PFS)” value ([1]; fulvestrant 500 mg) was 6.5 months, the response rate ([1]; fulvestrant 500 mg, 95% CI 9.7-18.8%) was 13.8% and the “overall survival (OS)” value ([1]; fulvestrant 500 mg) was 25.1 months. For the same molecule, the “ER baseline levels remaining” value (ER) was “up to 50%”.
